# Experimental data: patent US10821092B2, “Viscous topical ocular formulations” (Encompass Development, Inc., priority 2014, dated 2020)
# Tests used:
# rabbit eye = experiment: Blink response to surface stimulation in rabbits: onset and duration of anesthesia; format: in vivo, New Zealand White Rabbits; conditions: as shown in the working examples
# Procedure: This rabbit study was performed in order to evaluate various formulations. General guidelines for these studies are attached here as Attachment 1. This guideline defines the screening of six (6) formulations using two (2) different viscosity enhancing agents. The two agents selected were Carboxymethylcellulose (CMC) and Sodium Hyluronate (HA). The specifics of these formulations are described in Attachment 2.
# A statistical analysis of the experimental results for both onset of action and the duration of anesthesia is provided below. The means were compiled and statistically compared to the controls in each individual formulation. The significance or non-significance is noted as (S=Significant P value <0.001, NS=Not Significant P Value >0.05). The duration results are summarized here in Table 1.
# Six different formulations were tested and the onset and duration of action was evaluated.
# The commercially available Tetracaine hydrochloride 0.5% Ophthalmic Solution was used as the control.
# New Zealand White Rabbits were obtained from Harlan Sprague Dawley. They were housed in the animal facility at Mercer
# Dosing was performed with the experimental formulation in one eye by dropping the formulation into the rabbit eye with the aid of a dropper and the standard marketed product was administered in the contra lateral eye as a control. Multiple experiments were run with the same group of rabbits. […]
# [1] = cited from earlier work
structure (smiles),measurement,setting,value
CCCCNc1ccc(C(=O)OCCN(C)C)cc1 [tetracaine],duration of anesthesia after administration to the eye,rabbit eye,up to 55 minutes
same,onset of anesthesia,[1]; background statement on tetracaine ophthalmic solution,≤ 30 s
same,duration of anesthetic properties,"[1]; background statement, cataract surgery",15 to 20 min
